# Results reported in PubChem BioAssay AID2060626 (Molecular Pharmacology Branch, DTP, NCI, 2025).
# pIC50: −log10 of the molar value.
# System: 168753-222-R-J1-PDC complex spheroid viability
# Test: Anticancer human tumor 168753-222-R-J1-PDC patient-derived bladder carcinoma cell line growth inhibition [CLK]
# Settings: curve of first compound; second compound 0.0316 µM
# Outline: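 Multi-cell-type spheroids combined patient-derived tumor cells with HUVEC endothelial cells and human mesenchymal stem cells. Paired agents were dosed in half-log steps down from about clinical Cmax, or from 10 microM where Cmax was unknown.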
# 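Further: viability measured after seven days of drug exposure.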
row,SMILES,pIC50
1,COc1ccc([C@@H](O)c2cc(-c3ncnc4cc(N5CCOCC5)ccc34)c(F)cc2Cl)nn1 + CN1CCN(c2cc(C(=O)Nc3cc4cc(-c5cnn(C)c5)ccc4cn3)ccn2)CC1,6.44
2,COc1cccc2c1C(=O)c1c(O)c3c(c(O)c1C2=O)CC(O)(C(=O)CO)CC3OC1CC(N)C(O)C(C)O1 (stereo unspecified) + CN1CCN(c2cc(C(=O)Nc3cc4cc(-c5cnn(C)c5)ccc4cn3)ccn2)CC1,7.48
3,C=CC(=O)N1CCN(c2nc(=O)n(-c3c(C)ccnc3C(C)C)c3nc(-c4c(O)cccc4F)c(F)cc23)C(C)C1 (stereo unspecified) + CNC(=O)c1ccc(Nc2nc(OC3CCCC3)c3c(-c4ccc5nc(C)oc5c4)c[nH]c3n2)c(OC)c1,< 5.00
4,CCCS(=O)(=O)Nc1ccc(F)c(C(=O)c2c[nH]c3ncc(-c4ccc(Cl)cc4)cc23)c1F + CNC(=O)c1ccc(Nc2nc(OC3CCCC3)c3c(-c4ccc5nc(C)oc5c4)c[nH]c3n2)c(OC)c1,< 5.00
5,COC1C=CCC(C)C(C)S(=O)(=O)NC(=O)c2ccc3c(c2)N(CC2CCC21)CC1(CCCc2cc(Cl)ccc21)CO3 (stereo unspecified) + CNC(=O)c1ccc(Nc2nc(OC3CCCC3)c3c(-c4ccc5nc(C)oc5c4)c[nH]c3n2)c(OC)c1,5.64

# Same assay, conditions: curve of first compound; second compound 0.1 µM
row,SMILES,pIC50
1,COc1ccc([C@@H](O)c2cc(-c3ncnc4cc(N5CCOCC5)ccc34)c(F)cc2Cl)nn1 + CN1CCN(c2cc(C(=O)Nc3cc4cc(-c5cnn(C)c5)ccc4cn3)ccn2)CC1,7.32
2,COc1cccc2c1C(=O)c1c(O)c3c(c(O)c1C2=O)CC(O)(C(=O)CO)CC3OC1CC(N)C(O)C(C)O1 (stereo unspecified) + CN1CCN(c2cc(C(=O)Nc3cc4cc(-c5cnn(C)c5)ccc4cn3)ccn2)CC1,> 7.50
3,C=CC(=O)N1CCN(c2nc(=O)n(-c3c(C)ccnc3C(C)C)c3nc(-c4c(O)cccc4F)c(F)cc23)C(C)C1 (stereo unspecified) + CNC(=O)c1ccc(Nc2nc(OC3CCCC3)c3c(-c4ccc5nc(C)oc5c4)c[nH]c3n2)c(OC)c1,< 5.00
4,CCCS(=O)(=O)Nc1ccc(F)c(C(=O)c2c[nH]c3ncc(-c4ccc(Cl)cc4)cc23)c1F + CNC(=O)c1ccc(Nc2nc(OC3CCCC3)c3c(-c4ccc5nc(C)oc5c4)c[nH]c3n2)c(OC)c1,< 5.00
5,COC1C=CCC(C)C(C)S(=O)(=O)NC(=O)c2ccc3c(c2)N(CC2CCC21)CC1(CCCc2cc(Cl)ccc21)CO3 (stereo unspecified) + CNC(=O)c1ccc(Nc2nc(OC3CCCC3)c3c(-c4ccc5nc(C)oc5c4)c[nH]c3n2)c(OC)c1,5.67

# Same assay, conditions: curve of first compound; second compound 0.316 µM
row,SMILES,pIC50
1,COc1ccc([C@@H](O)c2cc(-c3ncnc4cc(N5CCOCC5)ccc34)c(F)cc2Cl)nn1 + CN1CCN(c2cc(C(=O)Nc3cc4cc(-c5cnn(C)c5)ccc4cn3)ccn2)CC1,> 7.50
2,COc1cccc2c1C(=O)c1c(O)c3c(c(O)c1C2=O)CC(O)(C(=O)CO)CC3OC1CC(N)C(O)C(C)O1 (stereo unspecified) + CN1CCN(c2cc(C(=O)Nc3cc4cc(-c5cnn(C)c5)ccc4cn3)ccn2)CC1,> 7.50
3,C=CC(=O)N1CCN(c2nc(=O)n(-c3c(C)ccnc3C(C)C)c3nc(-c4c(O)cccc4F)c(F)cc23)C(C)C1 (stereo unspecified) + CNC(=O)c1ccc(Nc2nc(OC3CCCC3)c3c(-c4ccc5nc(C)oc5c4)c[nH]c3n2)c(OC)c1,< 5.00
4,CCCS(=O)(=O)Nc1ccc(F)c(C(=O)c2c[nH]c3ncc(-c4ccc(Cl)cc4)cc23)c1F + CNC(=O)c1ccc(Nc2nc(OC3CCCC3)c3c(-c4ccc5nc(C)oc5c4)c[nH]c3n2)c(OC)c1,5.01
5,COC1C=CCC(C)C(C)S(=O)(=O)NC(=O)c2ccc3c(c2)N(CC2CCC21)CC1(CCCc2cc(Cl)ccc21)CO3 (stereo unspecified) + CNC(=O)c1ccc(Nc2nc(OC3CCCC3)c3c(-c4ccc5nc(C)oc5c4)c[nH]c3n2)c(OC)c1,6.69

# Same assay, conditions: curve of first compound; second compound 1 µM
row,SMILES,pIC50
1,COc1ccc([C@@H](O)c2cc(-c3ncnc4cc(N5CCOCC5)ccc34)c(F)cc2Cl)nn1 + CN1CCN(c2cc(C(=O)Nc3cc4cc(-c5cnn(C)c5)ccc4cn3)ccn2)CC1,> 7.50
2,COc1cccc2c1C(=O)c1c(O)c3c(c(O)c1C2=O)CC(O)(C(=O)CO)CC3OC1CC(N)C(O)C(C)O1 (stereo unspecified) + CN1CCN(c2cc(C(=O)Nc3cc4cc(-c5cnn(C)c5)ccc4cn3)ccn2)CC1,> 7.50
3,C=CC(=O)N1CCN(c2nc(=O)n(-c3c(C)ccnc3C(C)C)c3nc(-c4c(O)cccc4F)c(F)cc23)C(C)C1 (stereo unspecified) + CNC(=O)c1ccc(Nc2nc(OC3CCCC3)c3c(-c4ccc5nc(C)oc5c4)c[nH]c3n2)c(OC)c1,> 7.50
4,CCCS(=O)(=O)Nc1ccc(F)c(C(=O)c2c[nH]c3ncc(-c4ccc(Cl)cc4)cc23)c1F + CNC(=O)c1ccc(Nc2nc(OC3CCCC3)c3c(-c4ccc5nc(C)oc5c4)c[nH]c3n2)c(OC)c1,5.41
5,COC1C=CCC(C)C(C)S(=O)(=O)NC(=O)c2ccc3c(c2)N(CC2CCC21)CC1(CCCc2cc(Cl)ccc21)CO3 (stereo unspecified) + CNC(=O)c1ccc(Nc2nc(OC3CCCC3)c3c(-c4ccc5nc(C)oc5c4)c[nH]c3n2)c(OC)c1,> 7.50

# Same assay, conditions: curve of first compound; second compound 3.16 µM
row,SMILES,pIC50
1,COc1ccc([C@@H](O)c2cc(-c3ncnc4cc(N5CCOCC5)ccc34)c(F)cc2Cl)nn1 + CN1CCN(c2cc(C(=O)Nc3cc4cc(-c5cnn(C)c5)ccc4cn3)ccn2)CC1,> 7.50
2,COc1cccc2c1C(=O)c1c(O)c3c(c(O)c1C2=O)CC(O)(C(=O)CO)CC3OC1CC(N)C(O)C(C)O1 (stereo unspecified) + CN1CCN(c2cc(C(=O)Nc3cc4cc(-c5cnn(C)c5)ccc4cn3)ccn2)CC1,> 7.50
3,C=CC(=O)N1CCN(c2nc(=O)n(-c3c(C)ccnc3C(C)C)c3nc(-c4c(O)cccc4F)c(F)cc23)C(C)C1 (stereo unspecified) + CNC(=O)c1ccc(Nc2nc(OC3CCCC3)c3c(-c4ccc5nc(C)oc5c4)c[nH]c3n2)c(OC)c1,> 7.50
4,CCCS(=O)(=O)Nc1ccc(F)c(C(=O)c2c[nH]c3ncc(-c4ccc(Cl)cc4)cc23)c1F + CNC(=O)c1ccc(Nc2nc(OC3CCCC3)c3c(-c4ccc5nc(C)oc5c4)c[nH]c3n2)c(OC)c1,> 7.50
5,COC1C=CCC(C)C(C)S(=O)(=O)NC(=O)c2ccc3c(c2)N(CC2CCC21)CC1(CCCc2cc(Cl)ccc21)CO3 (stereo unspecified) + CNC(=O)c1ccc(Nc2nc(OC3CCCC3)c3c(-c4ccc5nc(C)oc5c4)c[nH]c3n2)c(OC)c1,> 7.50

# Same assay, conditions: curve of first compound; second compound 10 µM
row,SMILES,pIC50
1,COc1ccc([C@@H](O)c2cc(-c3ncnc4cc(N5CCOCC5)ccc34)c(F)cc2Cl)nn1 + CN1CCN(c2cc(C(=O)Nc3cc4cc(-c5cnn(C)c5)ccc4cn3)ccn2)CC1,> 7.50
